Patent publication US11584744B2 (UNIVERSITY OF WASHINGTON, priority 2017, dated 2023)
Values after ≈ are worked out from the molar mass of the structure shown. Where two headings read alike, the source gives them in different places.

Columns and labels:
[1] = target: recombinant S. aureus MetRS enzyme (Staphylococcus aureus, UniProt A0A0H2XID2); experiment: Inhibition of SaMetRS, ATP depletion assay; type: biochemical; details: read-out: (B) MetRS (S. aureus) IC50
Experimental: Production of recombinant S. aureus MetRSs. The SaMetRS gene (UniProtKB—A0A0H2XID2) was PCR amplified (Sense 5′-[…]-3′ (SEQ ID NO: 1) and Antisense 5′-[…]-3′ (SEQ ID NO:2)) from genomic DNA isolated from S. aureus (ATCC 29213) cultures. The PCR product was then cloned into the AVA0421 plasmid and sequence verified. The expression of recombinant protein was performed as previously described. The N-terminal 6-His fusion proteins were purified by nickel affinity chromatography followed by size exclusion gel chromatography (Superdex 75 26/60; GE Biosciences, Piscataway, N.J.).
Enzyme assays. Inhibition of SaMetRS was measured using the ATP depletion assay as previously described with some modifications. Compounds were pre-incubated for 15 minutes at room temperature in a 96-well plate with 400 μg/mL bulk E. coli tRNA, 25 nM SaMetRS, 0.1 U/mL pyrophosphatase, 0.2 mM spermine, 0.1 mg/mL bovine serum albumin, 2.5 mM dithiothreitol, 25 mM HEPES-KOH pH 7.9, 10 mM MgCl2, 50 mM KCl, and 2% DMSO. Reagents were purchased from Sigma-Aldrich or Roche. The reaction was started with the addition of 150 nM ATP and 20 μM L-methionine and after 120 minute incubation was stopped by the addition of an equal volume (50 μL) of Kinase-Glo® (Promega). Percent inhibition=100×(test compound−AVG low control)/(AVG high control−AVG low control) where the low control is all reagents except the compound and the high control is all reagents except the compounds and L-methionine. IC50 values were calculated by non-linear regression, sigmoidal-dose response, in Prism 3.0.

[2] = test system: S. aureus MSSA (ATCC 29213); experiment: MIC susceptibility testing; type: cell-based, Staphylococcus aureus; details: S. aureus ATCC 29213; for MIC: Staphylococcus aureus, read-out: (F) S. aureus (ATCC 29213) MIC
[3] = test system: S. aureus MRSA (ATCC 33591); experiment: MIC susceptibility testing; type: cell-based, Staphylococcus aureus; details: Staphylococcus aureus, MRSA ATCC33591; read-out: (G) MRSA (ATCC33591) MIC
How it was run: (§1)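 CLSI broth microdilution in triplicate, 5×10^5 CFU/mL final, ≤0.5% DMSO; MHB for S. aureus, CA-MHB for E. coli and E. faecium, CA-MHB plus 3% laked horse blood for S. pyogenes (5% CO2).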

C. parvum = C. parvum growth inhibition; type: cell-based, Cryptosporidium parvum; details: read-out: (J) C. parvum EC50
MetRS (C. parvum) = MetRS (C. parvum) (Cryptosporidium parvum, UniProt Q5CVN0); experiment: MetRS (C. parvum) enzyme inhibition; type: biochemical; details: read-out: (C) MetRS (C. parvum) IC50
MetRS (T. brucei) = target: T1, MetRS (T. brucei) (Trypanosoma brucei brucei, UniProt Q38C91); experiment: MetRS (T. brucei) enzyme inhibition; type: biochemical
T1 sequence (Q38C91 1-773): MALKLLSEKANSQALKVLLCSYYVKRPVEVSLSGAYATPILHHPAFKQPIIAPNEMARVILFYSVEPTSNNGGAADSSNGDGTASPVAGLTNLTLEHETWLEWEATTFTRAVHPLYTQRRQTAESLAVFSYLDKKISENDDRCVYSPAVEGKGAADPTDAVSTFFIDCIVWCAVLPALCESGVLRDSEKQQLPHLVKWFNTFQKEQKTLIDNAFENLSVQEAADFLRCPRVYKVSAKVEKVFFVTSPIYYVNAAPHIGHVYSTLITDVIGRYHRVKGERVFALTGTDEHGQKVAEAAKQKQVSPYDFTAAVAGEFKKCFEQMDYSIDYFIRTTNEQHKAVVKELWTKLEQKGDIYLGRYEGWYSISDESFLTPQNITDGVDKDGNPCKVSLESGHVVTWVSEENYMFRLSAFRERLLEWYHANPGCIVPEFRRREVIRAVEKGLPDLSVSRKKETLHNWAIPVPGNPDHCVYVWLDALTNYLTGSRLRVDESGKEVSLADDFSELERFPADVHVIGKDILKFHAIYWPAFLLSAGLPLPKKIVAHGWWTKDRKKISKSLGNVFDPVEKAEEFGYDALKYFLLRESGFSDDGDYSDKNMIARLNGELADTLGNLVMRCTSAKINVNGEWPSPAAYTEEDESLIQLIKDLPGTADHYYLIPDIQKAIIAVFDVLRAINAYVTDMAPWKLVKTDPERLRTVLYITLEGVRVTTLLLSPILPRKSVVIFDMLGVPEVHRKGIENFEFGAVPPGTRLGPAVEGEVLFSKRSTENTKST

T. cruzi = T. cruzi growth inhibition; type: cell-based, Trypanosoma cruzi; details: read-out: (E) T. cruzi EC50
T. brucei = T. brucei growth inhibition; type: cell-based, Trypanosoma brucei; details: read-out: (D) T. brucei EC50
[4] = test system: E. faecium VRE (ATCC 51559); experiment: MIC susceptibility testing; type: cell-based, Enterococcus faecium; details: Enterococcus faecium, E. faecium ATCC 51559; read-out: (I) E. faecium (ATCC 51559) MIC
How it was run: as §1

MetRS (C. parvum), sequence (Q5CVN0 entry or part of it): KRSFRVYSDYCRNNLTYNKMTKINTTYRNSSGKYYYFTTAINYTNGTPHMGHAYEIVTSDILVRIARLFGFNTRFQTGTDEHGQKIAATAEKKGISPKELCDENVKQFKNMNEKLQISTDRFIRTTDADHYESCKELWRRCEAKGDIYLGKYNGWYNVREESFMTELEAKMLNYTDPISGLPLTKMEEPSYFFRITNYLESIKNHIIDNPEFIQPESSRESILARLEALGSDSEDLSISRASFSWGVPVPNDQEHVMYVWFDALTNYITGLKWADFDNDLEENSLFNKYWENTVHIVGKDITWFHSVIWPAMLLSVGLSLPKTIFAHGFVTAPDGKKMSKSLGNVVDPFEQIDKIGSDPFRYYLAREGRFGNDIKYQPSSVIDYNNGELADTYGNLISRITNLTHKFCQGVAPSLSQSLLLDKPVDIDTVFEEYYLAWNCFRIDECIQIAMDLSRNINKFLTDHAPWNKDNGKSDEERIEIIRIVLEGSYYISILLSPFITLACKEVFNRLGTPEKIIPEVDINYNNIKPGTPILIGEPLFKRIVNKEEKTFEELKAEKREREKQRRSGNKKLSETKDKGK
recombinant S. aureus MetRS enzyme, sequence (A0A0H2XID2 2-657): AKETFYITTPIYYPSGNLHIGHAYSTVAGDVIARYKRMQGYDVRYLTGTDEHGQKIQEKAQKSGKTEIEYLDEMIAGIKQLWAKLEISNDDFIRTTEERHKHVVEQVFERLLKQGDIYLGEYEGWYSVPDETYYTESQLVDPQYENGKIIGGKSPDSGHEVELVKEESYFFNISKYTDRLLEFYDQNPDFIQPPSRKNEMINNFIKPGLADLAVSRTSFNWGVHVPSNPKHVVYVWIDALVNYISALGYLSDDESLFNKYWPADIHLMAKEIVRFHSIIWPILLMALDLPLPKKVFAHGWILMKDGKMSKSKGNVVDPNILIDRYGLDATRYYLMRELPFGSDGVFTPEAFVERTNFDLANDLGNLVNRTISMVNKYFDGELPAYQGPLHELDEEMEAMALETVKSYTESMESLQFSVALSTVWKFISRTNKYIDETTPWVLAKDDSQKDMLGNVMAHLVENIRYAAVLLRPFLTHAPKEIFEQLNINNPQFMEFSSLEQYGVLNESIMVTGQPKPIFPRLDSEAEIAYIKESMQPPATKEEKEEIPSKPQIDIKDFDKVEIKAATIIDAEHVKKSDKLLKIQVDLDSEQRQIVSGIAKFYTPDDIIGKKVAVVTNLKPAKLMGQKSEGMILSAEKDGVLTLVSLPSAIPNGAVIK

Structure (SMILES)	IC50 [1]	MIC [2]	MIC [3]	EC50 (C. parvum; Cryptosporidium parvum)	EC50 (C. parvum)	IC50 (MetRS (C. parvum))	IC50 (MetRS (T. brucei))	EC50 (T. cruzi; Trypanosoma cruzi)	(F) S. aureus (ATCC 29213) MIC [2]	EC50 (T. brucei; Trypanosoma brucei)	EC50 (T. brucei)	EC50 (T. cruzi)	MIC [4]
COCCn1c(Cc2ccc(Cl)cc2Cl)cn(Cc2nc3ccc(F)nc3[nH]2)c1=O [Compound 2077, 4-[(2,4-dichlorophenyl)methyl]-1-({5-fluoro-1H-imidazo[4,5-b]pyridin-2-yl}methyl)-3-(2-methoxyethyl)-2,3-dihydro-1H-imidazol-2-one]	< 25 nM	0.818 µg/mL (≈ 1.82 µM)	> 2.5 µg/mL	475 nM	283 nM	< 40 nM	< 40 nM	215 nM	–	–	–	–	–
CCCn1c(Cc2ccc(Cl)cc2Cl)cn(Cc2nc3ccc(Cl)nc3[nH]2)c1=O [Compound 2079, 1-({5-chloro-1H-imidazo[4,5-b]pyridin-2-yl}methyl)-4-[(2,4-dichlorophenyl)-methyl]-3-propyl-2,3-dihydro-1H-imidazol-2-one]	< 25 nM	0.044 µg/mL (≈ 0.0976 µM)	> 2.5 µg/mL	–	–	< 40 nM	< 40 nM	26 nM	0.0391 µg/mL	< 0.91 nM	1.79 nM	22.5 nM	–
O=c1n(Cc2nc3ccc(F)nc3[nH]2)cc(Cc2ccc(Cl)cc2Cl)n1CC1CCOCC1 [Compound 2087, 4-[(2,4-dichlorophenyl)methyl]-1-({5-fluoro-1H-imidazo[4,5-b]pyridin-2-yl}methyl)-3-[(oxan-4-yl)methyl]-2,3-dihydro-1H-imidazol-2-one]	< 25 nM	0.254 µg/mL (≈ 0.518 µM)	1.67 µg/mL (≈ 3.41 µM)	–	–	< 40 nM	< 40 nM	359 nM	–	–	–	–	–
O=c1n(Cc2nc3nc(F)ccc3[nH]2)cc(Cc2ccc(Cl)cc2Cl)n1C1CCOCC1 [Compound 2088, 4-[(2,4-dichlorophenyl)methyl]-1-({5-fluoro-1H-imidazo[4,5-b]pyridin-2-yl}methyl)-3-(oxan-4-yl)-2,3-dihydro-1H-imidazol-2-one]	< 25 nM	0.424 µg/mL (≈ 0.89 µM)	1.5 µg/mL (≈ 3.15 µM)	–	–	< 40 nM	< 40 nM	263 nM	–	–	–	–	–
CCn1c(Cc2ccc(Cl)cc2Cl)cn(Cc2nc3ccc(Br)nc3[nH]2)c1=O [Compound 2091, 1-({5-bromo-1H-imidazo[4,5-b]pyridin-2-yl}methyl)-4-[(2,4-dichlorophenyl)-methyl]-3-ethyl-2,3-dihydro-1H-imidazol-2-one]	< 25 nM	0.199 µg/mL (≈ 0.414 µM)	> 2.5 µg/mL	598 nM	–	< 40 nM	< 40 nM	59 nM	–	2.8 nM	–	40.6 nM	–
CS(=O)(=O)c1nc(Cc2ccc(Cl)cc2Cl)cn1Cc1nc2nc(Cl)ccc2[nH]1 [Compound 2111, 1-({5-chloro-1H-imidazo[4,5-b]pyridin-2-yl}methyl)-4-[(2,4-dichlorophenyl)methyl]-2-methanesulfonyl-1H-imidazole]	< 25 nM	1.25 µg/mL (≈ 2.66 µM)	–	–	–	146 nM	< 40 nM	445 nM	–	54.6 nM	–	–	–
COc1cc(-c2cccc3nc(Cc4nc5nc(Cl)ccc5[nH]4)cn23)c(Cl)cc1Cl [Compound 2128, 2-({5-chloro-1H-imidazo[4,5-b]pyridin-2-yl}methyl)-5-(2,4-dichloro-5-methoxyphenyl)imidazo[1,2-a]pyridine]	< 25 nM	–	–	1680 nM	–	< 40 nM	< 40 nM	5.88 nM	–	3.62 nM	3.4 nM	10.8 nM	0.24 µg/mL (≈ 0.523 µM)
Fc1ccc2[nH]c(Cc3cn4c(-c5ccc(Cl)cc5Cl)cccc4n3)nc2n1 [Compound 2135, 5-(2,4-dichlorophenyl)-2-({5-fluoro-1H-imidazo[4,5-b]pyridin-2-yl}methyl)imidazo[1,2-a]pyridine]	< 25 nM	0.592 µg/mL (≈ 1.44 µM)	–	–	–	56.7 nM	< 40 nM	2160 nM	–	99.3 nM	–	–	1.33 µg/mL (≈ 3.23 µM)
O=c1n(Cc2nc3nc(F)ccc3[nH]2)cc(Cc2ccc(Cl)cc2Cl)n1CC(F)F [Compound 2139, 4-[(2,4-dichlorophenyl)methyl]-3-(2,2-difluoroethyl)-1-({5-fluoro-1H-imidazo[4,5-b]pyridin-2-yl}methyl)-2,3-dihydro-1H-imidazol-2-one]	< 25 nM	0.0776 µg/mL (≈ 0.17 µM)	0.307 µg/mL (≈ 0.673 µM)	193 nM	–	< 40 nM	< 40 nM	–	–	3.21 nM	–	–	–
COc1cc(Cl)c(-c2cccc3nc(Cc4nc5nc(F)ccc5[nH]4)cn23)cc1OC [Compound 2145, 5-(2-chloro-4,5-dimethoxyphenyl)-2-({5-fluoro-1H-imidazo[4,5-b]pyridin-2-yl}methyl)imidazo[1,2-a]pyridine]	< 25 nM	–	–	> 2000 nM	–	74.7 nM	< 40 nM	66.7 nM	–	–	–	129 nM	–
COc1ccc(-c2cccc3nc(Cc4nc5nc(C(F)(F)F)ccc5[nH]4)cn23)c(Cl)c1 [Compound 2166, 5-(2-chloro-4-methoxyphenyl)-2-{[5-(trifluoromethyl)-1H-imidazo[4,5-b]pyridin-2-yl]methyl}imidazo[1,2-a]pyridine]	177 nM	> 1.25 µg/mL	–	–	–	> 1000 nM	< 40 nM	596 nM	–	> 200 nM	–	–	> 2.5 µg/mL
COc1ccc(-c2ccc3c(=O)ccn(Cc4nc5nc(F)ccc5[nH]4)c3c2)c(Cl)c1 [Compound 2168, 7-(2-chloro-4-methoxyphenyl)-1-((5-fluoro-1H-imidazo[4,5-b]pyridin-2-yl)methyl)quinolin-4(1H)-one]	< 25 nM	> 1.25 µg/mL	–	–	–	< 40 nM	< 40 nM	6150 nM	–	> 200 nM	–	–	> 2.5 µg/mL
COc1ccc(-c2cn(Cc3ccccc3)c3c2CN(Cc2nc4nc(Cl)ccc4[nH]2)CC3)c(Cl)c1 [Compound 2176, 2-((1-benzyl-3-(2-chloro-4-methoxyphenyl)-6,7-dihydro-1H-pyrrolo[3,2-c]pyridin-5(4H)-yl)methyl)-5-chloro-1H-imidazo[4,5-b]pyridine]	< 25 nM	> 0.5 µg/mL	> 2.5 µg/mL	–	–	80 nM	< 40 nM	283 nM	–	40.6 nM	–	–	–
COc1ccc(-c2cnc(N3CCN(C(C)=O)CC3)c3nc(Cc4nc5nc(Cl)ccc5[nH]4)cn23)c(Cl)c1 [Compound 2185, 1-{4-[2-({5-chloro-1H-imidazo[4,5-b]pyridin-2-yl}methyl)-5-(2-chloro-4-methoxyphenyl)imidazo[1,2-a]pyrazin-8-yl]piperazin-1-yl}ethan-1-one]	< 25 nM	0.358 µg/mL (≈ 0.649 µM)	1.2 µg/mL (≈ 2.18 µM)	243 nM	–	< 40 nM	< 40 nM	71.6 nM	–	–	–	90.9 nM	–
